Patent publication US9975882B2, “Heteroaromatic compounds as BTK inhibitors” (Boehringer Ingelheim International GmbH, priority 2015, dated 2018)
Like-named read-outs stand apart in the source and are kept apart here.

What was measured:
[1] = Plasma compound exposure in rats (tail bleed, day 6); format: in vivo; settings: rat
Protocol: (§1) All animals (telemetry-instrumented) are single housed in metabolic cages. Rats are acclimated to the metabolic cage for at least 3 days and then dosed with vehicle for up to 4 days. Blood pressure, heart rate, and bodyweight are collected during the baseline period and animals are randomized into 3 groups based on these parameters (n=8-9/group). Treatment groups are: vehicle and test compound (10 mg/kg po and 30 mg/kg po qd); animals are treated with compound for 5 days. […] Mean arterial pressure (MAP) and heart rate (HR) are collected continuously throughout the study. Statistical analyses is performed using GraphPad Prism based on the average 24-hr mean value during five days of compound administration (one-way ANOVA with Dunnett's post-test vs. Vehicle; p<0.05 is considered statistically significant).

[2] = tested on: mean arterial pressure (MAP); settings: rat, in vivo; for 5-Day 24-h MAP Change versus Control: po
Protocol: In-Vivo Assay—Comparison Between the Compounds of the Present Invention and Comparative Compounds A, B and C
In a side-by-side in-vivo study, select compounds of the present invention and comparative compounds A-C are evaluated in telemetry-instrumented conscious rats to determine their effects on mean arterial pressure (MAP) at doses at or above therapeutically relevant concentrations.
as §1

[3] = biological target: human recombinant BTK (full length, His-tagged) (Homo sapiens (Human), UniProt Q06187); assay: BTK Z'-LYTE assay; format: biochemical; settings: 25 μM ATP;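 further: FRET readout of kinase phosphorylating a coumarin and fluorescein labelled synthetic peptide, detected via protease sensitivity of unphosphorylated versus phosphorylated substrate, incubated at 22 °C in 384-well plates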
human recombinant BTK (full length, His-tagged), sequence (Q06187 whole entry): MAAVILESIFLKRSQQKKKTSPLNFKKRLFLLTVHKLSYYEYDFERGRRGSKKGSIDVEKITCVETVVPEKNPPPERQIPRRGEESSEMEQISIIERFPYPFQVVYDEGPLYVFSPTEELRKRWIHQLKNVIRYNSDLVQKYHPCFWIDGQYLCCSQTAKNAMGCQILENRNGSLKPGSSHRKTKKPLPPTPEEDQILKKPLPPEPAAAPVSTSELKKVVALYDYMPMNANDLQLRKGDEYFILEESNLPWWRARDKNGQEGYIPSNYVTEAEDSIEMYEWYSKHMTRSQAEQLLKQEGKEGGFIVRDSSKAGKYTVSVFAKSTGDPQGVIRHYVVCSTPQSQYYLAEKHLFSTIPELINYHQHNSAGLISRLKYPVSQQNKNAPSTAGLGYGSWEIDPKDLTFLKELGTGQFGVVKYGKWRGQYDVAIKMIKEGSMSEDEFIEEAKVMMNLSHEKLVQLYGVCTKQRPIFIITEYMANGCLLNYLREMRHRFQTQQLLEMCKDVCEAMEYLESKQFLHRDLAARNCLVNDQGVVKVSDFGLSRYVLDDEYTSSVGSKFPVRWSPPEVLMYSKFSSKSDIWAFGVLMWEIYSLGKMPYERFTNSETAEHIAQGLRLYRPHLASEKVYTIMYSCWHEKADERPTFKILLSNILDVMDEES
Protocol: Z′-LYTE™ Assay (Life Technologies):
(§3) The Z′-Lyte assay employs a FRET-based, coupled-enzyme format and is based on the differential sensitivity of phosphorylated and non-phosphorylated peptides to proteolytic Cleavage. The activity of human recombinant BTK (full length, His-tagged), BMX (full length, His-tagged) or Txk (full length, GST-tagged) is estimated by measuring the phosphorylation of a synthetic FRET peptide substrate labeled with Coumarin and Fluorescein. […] Incubations are carried out at 22° C. in black polypropylene 384-well plates (Corning).
(§4) Representative compounds of the present invention are assessed for inhibition of BTK, BMX, and TXK measuring phosphorylation of a substrate (Z′-LYTE™ assay, Life Technologies) and TEC measuring displacement of a “tracer” (Lanthscreen® Eu Kinase Binding assay, Life Technologies).

[4] = biological target: human recombinant full length TEC (His-tagged) (Homo sapiens (Human), UniProt P42680); assay: TEC Lanthscreen Eu Kinase Binding assay; settings: 1 nM TEC
human recombinant full length TEC (His-tagged), sequence (P42680 whole entry): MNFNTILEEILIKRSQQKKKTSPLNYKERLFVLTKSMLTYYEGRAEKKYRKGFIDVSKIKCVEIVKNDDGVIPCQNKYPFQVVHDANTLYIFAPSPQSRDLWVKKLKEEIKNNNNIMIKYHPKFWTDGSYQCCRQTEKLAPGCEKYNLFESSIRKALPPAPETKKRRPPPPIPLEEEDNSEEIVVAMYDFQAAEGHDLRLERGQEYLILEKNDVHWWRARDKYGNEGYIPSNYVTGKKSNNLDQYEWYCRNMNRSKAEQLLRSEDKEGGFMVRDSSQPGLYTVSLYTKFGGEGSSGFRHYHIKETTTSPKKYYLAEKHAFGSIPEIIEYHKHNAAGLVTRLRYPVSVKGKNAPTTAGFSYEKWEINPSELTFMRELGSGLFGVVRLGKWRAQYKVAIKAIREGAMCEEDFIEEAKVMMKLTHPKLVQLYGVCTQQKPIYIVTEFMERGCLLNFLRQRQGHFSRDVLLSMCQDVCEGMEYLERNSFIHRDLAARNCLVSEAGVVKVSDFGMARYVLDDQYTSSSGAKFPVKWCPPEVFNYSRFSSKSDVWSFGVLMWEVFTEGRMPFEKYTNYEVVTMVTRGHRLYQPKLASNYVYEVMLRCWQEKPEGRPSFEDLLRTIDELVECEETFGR

[5] = biological target: human recombinant Txk (full length, GST-tagged) (Homo sapiens (Human), UniProt P42681); assay: TXK Z'-LYTE assay; settings: read-out: TXK IC50, 100 μM ATP;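 further: FRET read-out of kinase phosphorylation of a synthetic peptide labelled with Coumarin and Fluorescein, scored by protease sensitivity of unphosphorylated peptide, incubated at 22 °C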
human recombinant Txk (full length, GST-tagged), sequence (P42681 whole entry): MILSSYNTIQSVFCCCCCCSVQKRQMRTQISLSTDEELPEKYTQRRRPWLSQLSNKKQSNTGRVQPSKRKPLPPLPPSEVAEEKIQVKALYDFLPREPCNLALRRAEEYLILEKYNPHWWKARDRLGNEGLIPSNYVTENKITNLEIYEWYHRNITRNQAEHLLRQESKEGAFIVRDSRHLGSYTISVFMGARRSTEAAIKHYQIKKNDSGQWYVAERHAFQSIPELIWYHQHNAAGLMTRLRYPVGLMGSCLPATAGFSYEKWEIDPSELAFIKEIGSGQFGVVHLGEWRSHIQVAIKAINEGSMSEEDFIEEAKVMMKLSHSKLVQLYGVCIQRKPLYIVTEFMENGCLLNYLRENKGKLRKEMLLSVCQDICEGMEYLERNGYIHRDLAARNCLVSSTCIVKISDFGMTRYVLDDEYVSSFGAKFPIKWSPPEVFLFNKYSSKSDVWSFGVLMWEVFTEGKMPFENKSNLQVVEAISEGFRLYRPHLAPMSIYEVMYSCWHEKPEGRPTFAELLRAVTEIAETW
Protocol: Z′-LYTE™ Assay (Life Technologies):
as §3, §4

[6] = tested on: BTK (IL-6 production in primary CD19+ B cells); assay: Inhibition of IL-6 production in B cells co-stimulated with ODN 2006 and anti-hIgD; format: cell-based; settings: B-cell, anti-human IgD + ODN 2006
Protocol: Inhibition of IL-6 Production in B Cells Co-Stimulated with ODN 2006 and anti-hIgD
Primary CD19+ B cells (AllCells #PB010F) are thawed and plated in RPMI containing 10% HI FBS in a 384-well tissue cultured plate at 20,000 cells/well. The cells are treated with test compound (0.5% DMSO final concentration) and incubated for 1 hour at 37° C., 5% CO2. Cells are then stimulated with 5 ug/mL Goat F(ab′)2 anti-human IgD (SouthernBiotech #2032) and 2 uM ODN 2006 (InvivoGen #tlrl-2006) and incubated for 18-24 hours at 37° C., 5% CO2. IL-6 in the supernatant is measured using Meso Scale Discovery kit #K211AKB-6.
(§2) Representative compounds of the present invention are tested and show BTK inhibition (Table I). […] Additionally, compounds of the present invention, as represented by examples in Table II, are selective for BTK inhibition over other related kinases. […] In this table the BTK activity is measured by IL-6 production in primary CD19^+ B cells, and the EGFR activity is measured by EGFR phosphorylation in A431 cells.

[7] = biological target: human full length His-tagged BTK (Homo sapiens (Human), UniProt Q06187); assay: BTK Lanthscreen Eu Kinase Binding assay; settings: 2 nM BTK
human full length His-tagged BTK, sequence (Q06187 whole entry): as the sequence (Q06187 whole entry) above
Protocol: BTK Lanthscreen® Eu Kinase Binding Assay:
A Lanthscreen® Eu Kinase Binding assay (Life Technologies) is performed to quantitate the ability of test compounds to bind to BTK. The assay is based on the binding and displacement of Alexa Fluor647-labeled Kinase Tracer #236 to the ATP-binding site of human full length His-tagged BTK (Life Technologies cat #PV3587) with TR-FRET detection using a europium-labeled anti-His antibody. The assay is assembled in 384-well low volume NBS black plates (Corning) where 2 nM BTK and test compound in DMSO at varying concentrations are pre-incubated for 30 min at 28° C. in assay buffer consisting of 50 mM HEPES, pH 7.4, 10 mM MgCl2, 1 mM EGTA. 100 μM Na3VO4 and 0.01% Brij 35. Then, 2 nM of Eu-anti His antibody and 30 nM Kinase Tracer are added and incubated for 60 min at 28° C. Following incubation, TR-FRET signal is read on an Envision plate reader (Excitation: 340 nm; Emissions: 615 and 665 nm). The 665:615 nm emission ratio is calculated and converted to POC compared to control and blank wells.

[8] = biological target: EGFR (EGFR phosphorylation in A431 cells) (Homo sapiens (Human), UniProt P00533); assay: Inhibition of EGFR autophosphorylation in A431 human epithelial cells stimulated with EGF; format: cell-based; settings: EGF 60 ng/mL, read-out: A431 p-EGFR IC50
EGFR (EGFR phosphorylation in A431 cells), sequence (P00533 25-1210): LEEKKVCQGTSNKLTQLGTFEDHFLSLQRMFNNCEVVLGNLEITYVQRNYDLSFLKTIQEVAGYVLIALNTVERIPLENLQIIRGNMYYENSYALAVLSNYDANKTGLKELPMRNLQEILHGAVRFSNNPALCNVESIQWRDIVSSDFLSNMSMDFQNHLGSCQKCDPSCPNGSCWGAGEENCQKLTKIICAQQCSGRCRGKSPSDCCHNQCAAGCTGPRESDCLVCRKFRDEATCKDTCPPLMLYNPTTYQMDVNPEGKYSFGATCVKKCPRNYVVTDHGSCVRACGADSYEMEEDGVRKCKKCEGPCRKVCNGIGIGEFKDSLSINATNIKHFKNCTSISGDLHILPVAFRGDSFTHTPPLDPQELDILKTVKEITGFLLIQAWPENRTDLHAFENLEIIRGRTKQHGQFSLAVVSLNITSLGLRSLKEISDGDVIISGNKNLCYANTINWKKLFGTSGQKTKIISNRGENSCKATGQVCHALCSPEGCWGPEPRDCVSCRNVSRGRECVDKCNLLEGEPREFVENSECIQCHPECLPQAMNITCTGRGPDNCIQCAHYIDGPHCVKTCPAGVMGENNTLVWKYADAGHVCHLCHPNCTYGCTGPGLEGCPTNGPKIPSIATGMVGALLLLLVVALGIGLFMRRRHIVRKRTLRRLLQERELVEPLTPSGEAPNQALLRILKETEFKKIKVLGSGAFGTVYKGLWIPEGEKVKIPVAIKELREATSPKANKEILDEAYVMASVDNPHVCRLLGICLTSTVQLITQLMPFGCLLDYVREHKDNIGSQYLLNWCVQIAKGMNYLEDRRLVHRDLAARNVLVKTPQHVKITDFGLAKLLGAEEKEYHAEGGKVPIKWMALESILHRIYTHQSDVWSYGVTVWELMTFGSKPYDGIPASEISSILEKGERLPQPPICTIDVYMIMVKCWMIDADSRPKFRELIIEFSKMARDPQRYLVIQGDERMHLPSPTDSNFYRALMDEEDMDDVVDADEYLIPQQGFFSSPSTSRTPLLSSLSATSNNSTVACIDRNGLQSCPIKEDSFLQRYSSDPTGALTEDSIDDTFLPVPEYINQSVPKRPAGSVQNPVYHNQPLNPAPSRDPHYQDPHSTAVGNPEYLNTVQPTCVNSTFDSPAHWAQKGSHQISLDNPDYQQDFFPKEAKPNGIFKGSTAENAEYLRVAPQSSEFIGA
Protocol: Inhibition of EGFR Autophosphorylation in A431 Human Epithelial Cells Stimulated with Epithelial Growth Factor
A431 cells (ATCC #CRL-1555 FZ) are thawed and plated in DMEM containing 10% FBS in a 384-well tissue culture treated plate at 15,000 cells/well. After incubating for 24 hours at 37° C., 5% CO2, the cells are treated with test compound (1% DMSO final concentration) and incubated for 16 hours at 37° C., 5% CO2. EGF (Millipore, 01-107) is added at a final concentration of 60 ng/mL and incubated for 10 minutes. The medium is removed, the cells are lysed, and phospho EGFR is measured (Meso Scale Diagnostics, N31CB-1).
as §2

Row | SMILES | Cmax ([1]; plasma, 10 mg/kg po qd) [nM] | Cmax ([1]; plasma, 30 mg/kg po qd) [nM] | effect on mean arterial pressure (MAP) [2] | 5-Day 24-h MAP Change versus Control ([2]; 10 mg/kg, 5 days) [mmHg] | 5-Day 24-h MAP Change versus Control ([2]; 30 mg/kg, 5 days) [mmHg] | Cmax ([1]; 10 mg/kg po qd) [nM] | Cmax ([1]; 30 mg/kg po qd) [nM] | IC50 [3] [nM] | 5-Day 24-h MAP Change versus Control ([2]; 10 mg/kg) [mmHg] | 5-Day 24-h MAP Change versus Control ([2]; 30 mg/kg) [mmHg] | IC50 [4] [nM] | IC50 [5] [nM] | IC50 [6] [nM] | IC50 [7] [nM] | IC50 [8] [nM]
1 | C=CC(=O)N1CCC[C@@H](n2nc(-c3ccc(Oc4ccccc4)cc3)c3c(N)ncnc32)C1 [Compound A, 1-[(3R)-3-[4-amino-3-(4-phenoxyphenyl)pyrazolo[3,4-d]pyrimidin-1-yl]-1-piperidyl]prop-2-en-1-one] | 319 ± 36 | 561 ± 183 | statistically significant increases in MAP | 3 ± 1 | 4 ± 1 | – | – | – | – | – | – | – | – | – | –
2 | CC#CC(=O)N1CCC2(CC(n3nc(-c4ccc(OC(C)C)cc4)c(C(N)=O)c3N)C2)C1 (stereo not shown) [Compound B, 5-amino-1-(7-but-2-ynoyl-7-azaspiro[3.4]octan-2-yl)-3-(4-isopropoxyphenyl) pyrazole-4-carboxamide] | – | – | statistically significant increases in MAP | – | – | 182 ± 17 | 480 ± 53 | 0.9 | 3 ± 1 | 2 ± 1 | 44 | – | – | – | –
3 | C=CC(=O)Nc1cccc(Nc2nc(Nc3ccc(OCCOC)cc3)ncc2F)c1 [Compound C, N-(3-(5-fluoro-2-(4-(2-methoxyethoxy)phenylamino)pyrimidin-4-ylamino)phenyl)acrylamide] | 644 ± 96 | 1730 ± 434 | statistically significant increases in MAP | 4 ± 1 | 5 ± 1 | – | – | – | – | – | 6.8 | 22 | – | – | –
4 | CC#CC(=O)N1CC[C@]2(C1)C[C@H](n1nc(-c3cn(Cc4cccc(C(F)(F)F)c4)nc3C)c(C(N)=O)c1N)C2 [Example 19] | – | – | – | – | – | – | – | 5 | – | – | 160 | 220 | 2.3 | 0.9 | > 10000
5 | CC#CC(=O)N1CC[C@]2(C1)C[C@H](n1nc(-c3c(C)nn(Cc4cccc(C(F)(F)F)c4)c3C)c(C(N)=O)c1N)C2 [Example 21] | – | – | – | – | – | – | – | 40 | – | – | 1100 | 1900 | 9.2 | 5.8 | > 10000
6 | CC#CC(=O)N1CC[C@]2(C1)C[C@H](n1nc(-c3cnn(Cc4cccc(C(F)(F)F)c4)c3)c(C(N)=O)c1NC)C2 [Example 23] | – | – | – | – | – | – | – | 8.3 | – | – | 130 | 600 | 4.5 | 1.3 | > 10000
7 | CC#CC(=O)N1CC[C@]2(C1)C[C@H](n1nc(-c3ccn(Cc4cccc(C(F)(F)F)c4)n3)c(C(N)=O)c1N)C2 [Example 25] | – | – | – | – | – | – | – | 19 | – | – | 160 | 850 | 6.1 | 2.6 | > 10000
8 | C=CC(=O)N1CC[C@]2(C1)C[C@H](n1nc(-c3cnn(Cc4cccc(C(F)(F)F)c4F)c3)c(C(N)=O)c1N)C2 [Example 26] | – | – | – | – | – | – | – | 18 | – | – | 430 | 3000 | 4 | 2.6 | > 10000
9 | CC#CC(=O)N1CC[C@]2(C1)C[C@H](n1nc(-c3cnn(Cc4ccc(F)c(C(F)(F)F)c4)c3)c(C(N)=O)c1N)C2 [Example 30] | – | – | – | – | – | – | – | 3 | – | – | 64 | 160 | 2.4 | 0.6 | > 10000
10 | CC#CC(=O)N1CC[C@]2(C1)C[C@H](n1nc(-c3cnn(Cc4cccc(C(F)(F)F)c4F)c3)c(C(N)=O)c1N)C2 [Example 33] | – | – | – | – | – | – | – | 1.3 | – | – | 48 | 59 | 1.2 | 0.4 | > 10000
11 | CC#CC(=O)N1CC[C@]2(C1)C[C@H](n1nc(-c3cnn(Cc4cccc(C(F)F)c4)c3)c(C(N)=O)c1N)C2 [Example 36] | – | – | – | – | – | – | – | 1 | – | – | 22 | 50 | 0.5 | 0.2 | > 10000
12 | CC#CC(=O)N1CC[C@]2(C1)C[C@H](n1nc(-c3cnn(Cc4ccccc4)c3)c(C(N)=O)c1N)C2 [Example 44] | – | – | – | – | – | – | – | 1.4 | – | – | 20 | 78 | 0.7 | 0.3 | > 10000
13 | CC#CC(=O)N1CC2(CC(n3nc(-c4cnn(Cc5cccc(C(F)(F)F)c5)c4)c(C(N)=O)c3N)C2)C1 [Example 47] | – | – | – | – | – | – | – | 2.7 | – | – | 34 | 310 | 1.1 | 0.5 | > 10000
14 | CC#CC(=O)N1CC[C@]2(C1)C[C@H](n1nc(-c3cnn(Cc4cccc(C5CC5)c4)c3)c(C(N)=O)c1N)C2 [Example 51] | – | – | – | – | – | – | – | 0.8 | – | – | 18 | 12 | 1.9 | 0.3 | > 10000
15 | CC#CC(=O)N1CC[C@]2(C1)C[C@H](n1nc(-c3cn(Cc4cccc(C)c4)nc3C)c(C(N)=O)c1N)C2 [Example 52] | – | – | – | – | – | – | – | 7 | – | – | 100 | 260 | 0.5 | 1.2 | > 10000
16 | CC#CC(=O)N1CC[C@]2(C1)C[C@H](n1nc(-c3cnn(Cc4cccc(F)c4Cl)c3)c(C(N)=O)c1N)C2 [Example 53] | – | – | – | – | – | – | – | 1.3 | – | – | 47 | 84 | 0.4 | 0.3 | > 10000
17 | CC#CC(=O)N1CC[C@]2(C1)C[C@H](n1nc(-c3cnn(Cc4ccccc4Cl)c3)c(C(N)=O)c1N)C2 [Example 54] | – | – | – | – | – | – | – | 1.5 | – | – | 35 | 110 | 0.4 | 0.5 | > 10000
18 | CC#CC(=O)N1CC[C@]2(C1)C[C@H](n1nc(-c3cnn(Cc4cc(F)ccc4Cl)c3)c(C(N)=O)c1N)C2 [Example 55] | – | – | – | – | – | – | – | 2.5 | – | – | 67 | 79 | 1.5 | 0.7 | > 10000
19 | CC#CC(=O)N1CC[C@]2(C1)C[C@H](n1nc(-c3cnn(Cc4cccc(F)c4C(F)(F)F)c3)c(C(N)=O)c1N)C2 [Example 56] | – | – | – | – | – | – | – | 2.2 | – | – | 120 | 150 | 0.7 | 0.6 | > 10000
20 | CC#CC(=O)N1CC[C@]2(C1)C[C@H](n1nc(-c3cnn(Cc4ccccc4F)c3)c(C(N)=O)c1N)C2 [Example 60] | – | – | – | – | – | – | – | 1.7 | – | – | 35 | 100 | 0.6 | 0.5 | > 10000
